3 compounds from patent publication US12226441B2, “Composition for inhibiting intestinal permeability, treating leaky gut related diseases and/or preventing leaky gut related diseases” (priority 2020, dated 2025) can be followed below.

One assay concerns DSS-induced mice. In words: dextran sulfate sodium salt (DSS) induced abnormal intestinal permeability animal model, serum FITC-dextran. It counts as in vivo, C57BL/6 male mice. The conditions noted are these: positive control, 0.5% (v/v) DSS, 200 μM, 14 days, vs negative control. The method, then:
The animals used in this experiment were 5-6 week old C57BL/6 male mice (purchased from the National Laboratory Animal Center).
The experiment was performed by an animal model of dextran sulfate sodium salt (DSS) induced abnormal intestinal permeability (Laroui H, Ingersoll S A, Liu H C, Baker M T, Ayyadurai S, et al. (2012) Dextran Sodium Sulfate (DSS) Induces Colitis in Mice by Forming Nano-Lipocomplexes with Medium-Chain-Length Fatty Acids in the Colon. PLOS ONE 7(3): e32084. doi:10.1371/journal.pone.0032084).
The mice were divided into an untreated group (Naive), a negative control group (vehicle: water), a positive control group (5-aminosalicylic acid (5-ASA)) and 3 experiments groups (Sample 15B (Ganoderma extract+red jujube extract+lotus seed extract+lotus seed extract (the weight ratio of the respective herbal raw materials used to obtain the respective extracts is 3:1:1:1))). The mice in the untreated group were not treated in any way. […]
The FITC-dextran content in mouse serum was measured with a multifunctional microplate spectrometer (Molecular Device, FlexStation® 3) as an indicator of intestinal permeability.

The next assay deals with OCLN. The experiment in a line: real-time quantitative PCR of tight junction gene expression in rhamnolipid-induced Caco-2 cells. It is filed as cell-based, human. Conditions: positive control, 50 μM (18.6 μg/mL), rhamnolipid-induced Caco-2, vs negative control. The text has this: (§1) Total ribonucleic acid (total RNA) of cells was isolated by Total RNA Purification Kit (GeneMark, Taichung, Taiwan). Using Maxima First Strand cDNA Synthesis Kit (Thermo Fisher Scientific), according to the manufacturer's operating procedures, the obtained total ribonucleic acid subjected to a reverse transcription polymerase chain reaction to reverse-transcript messenger ribonucleic acid (mRNA) into cDNA. Next, the cDNA samples were subjected to a real-time quantitative polymerase chain reaction to determine the expression levels of CLDN3, OCLN and TJP1 mRNA.

The test system of a further assay is CLDN3. The description is as above. The conditions noted are these: positive control, 50 μM (18.6 μg/mL), rhamnolipid-induced Caco-2, vs negative control. It counts as cell-based, human.
Excerpt: as §1

A further assay relates to TJP1. The description is as above. It counts as cell-based, human. Conditions: positive control, 50 μM (18.6 μg/mL), rhamnolipid-induced Caco-2, vs negative control.
Excerpt: as §1

In assay [1] the test system is mice with circadian disruption. The experiment in a line: circadian disruption (insomnia) animal model, brainwave sleep cycle parameters. It is filed as in vivo, C57BL/6 male mice. The conditions noted are these: positive control, light-dark cycle 7 hours:7 hours, 2.5 mg/kg orally, Day 4, vs negative control.
Procedure: The animals used in this experiment were 8-week-old C57BL/6 male mice (purchased from the National Laboratory Animal Center).
The mice were subjected to a surgical operation to load electrodes on the skull to record brain waves. After a 7-day recovery period, the mice were reared for 2 weeks under a normal light-dark cycle of 12 hours: 12 hours, and the 24-hour brainwave changes of the mice were recorded as the basic point.
During the feeding, the mice in the negative control group were given the same amount of sterile water, mice in the positive control group were given diazepam (2.5 mg/kg orally), and mice in the experimental group were given 200 mg/kg Sample 15B.
The 24-hour brainwave changes of mice were recorded on Day 4 after the circadian disruption to analyze sleep cycle parameters of the time proportions (%) of the rapid eye movement (REM) and non-rapid eye movement (NREM), etc.

In the case of `Nc1ccc(O)c(C(=O)O)c1` [5-aminosalicylic acid], the “serum FITC-dextran concentration (intestinal permeability)” value with DSS-induced mice is reported as “reduce the serum FITC-dextran concentration”.
Consider `COc1ccc2cc3[n+](cc2c1OC)CCc1cc2c(cc1-3)OCO2` [berberine chloride], for which, in the assay on OCLN, the “expression level of OCLN gene” value was “significantly increase”. For the same compound, the “expression level of CLDN3 gene” value in the assay on CLDN3 is “significantly increase”. Further, the “expression level of TJP1 gene” value with TJP1 was “significantly increase”.
As to `CN1C(=O)CN=C(c2ccccc2)c2cc(Cl)ccc21` [diazepam], the “time proportion of the non-rapid eye movement (NREM)” value in assay [1] was “significantly increase the time proportion of the non-rapid eye movement”.
